Reference: the CheMixHub viscosity set
“And” between values parts separate entries of the source, which are not always exact repeats. Equal entries are not always repeated.

Test: xn = mol fraction of the nth substance listed

ClCCl + COCCOCCOCCOCCOC
298.15 K, 101 kPa
Conditions | viscosity [mPa·s]
x2 = 0.017 | 0.459
x2 = 0.0332 | 0.51
x2 = 0.0557 | 0.586
x2 = 0.0844 | 0.681
x2 = 0.1417 | 0.909
x2 = 0.1831 | 1.075
x2 = 0.236 | 1.294
x2 = 0.2842 | 1.492
x2 = 0.292 | 1.519
x2 = 0.3401 | 1.699
x2 = 0.38 | 1.848
x2 = 0.4698 | 2.155
x2 = 0.5134 | 2.334
x2 = 0.6018 | 2.651
x2 = 0.6882 | 2.749
x2 = 0.7367 | 2.865
x2 = 0.8029 | 2.981
x2 = 0.8758 | 3.111
x2 = 0.9066 | 3.17
x2 = 0.9339 | 3.239

ClCCl + ClCCCl
303.15 K, 101.3 kPa
Conditions | viscosity [mPa·s]
x2 = 0.0618 | 0.408
x2 = 0.1258 | 0.4242
x2 = 0.2132 | 0.4486
x2 = 0.3029 | 0.474
x2 = 0.419 | 0.5092
x2 = 0.5226 | 0.5436
x2 = 0.6033 | 0.5714
x2 = 0.7998 | 0.6445
x2 = 0.8933 | 0.6822
x2 = 0.9517 | 0.7068

CCOC=O + O=C1CCCO1
298.15 K, 101.33 kPa
Conditions | viscosity [mPa·s]
x1 = 0.0501 | 1.571
x1 = 0.0994 | 1.446
x1 = 0.1504 | 1.333
x1 = 0.2017 | 1.23
x1 = 0.2492 | 1.143
x1 = 0.3001 | 1.057
x1 = 0.4017 | 0.895
x1 = 0.4509 | 0.845
x1 = 0.503 | 0.783
x1 = 0.5488 | 0.732
x1 = 0.6028 | 0.677
x1 = 0.7138 | 0.576
x1 = 0.7502 | 0.547
x1 = 0.7894 | 0.51
x1 = 0.8503 | 0.47
x1 = 0.9 | 0.439
x1 = 0.9501 | 0.412

CC(=O)O + c1ccccc1
Conditions | viscosity
293.15 K, 101 kPa, x1 = 0.2158 | 0.658 mPa·s
293.15 K, 101 kPa, x1 = 0.3643 | 0.684 mPa·s
293.15 K, 101 kPa, x1 = 0.4322 | 0.67 mPa·s
293.15 K, 101 kPa, x1 = 0.5213 | 0.684 mPa·s
293.15 K, 101 kPa, x1 = 0.7321 | 0.723 mPa·s
293.15 K, 101 kPa, x1 = 0.9233 | 0.808 mPa·s
298.1 K, 101 kPa, x1 = 0.2 | 0.598 mPa·s
298.1 K, 101 kPa, x1 = 0.4 | 0.617 mPa·s
298.1 K, 101 kPa, x1 = 0.5 | 0.636 mPa·s
298.1 K, 101 kPa, x1 = 0.6 | 0.672 mPa·s
298.1 K, 101 kPa, x1 = 0.8 | 0.802 mPa·s
298.15 K, 101 kPa, x1 = 0.2158 | 0.632 mPa·s
298.15 K, 101 kPa, x1 = 0.3643 | 0.661 mPa·s
298.15 K, 101 kPa, x1 = 0.4322 | 0.65 mPa·s
298.15 K, 101 kPa, x1 = 0.5213 | 0.663 mPa·s
298.15 K, 101 kPa, x1 = 0.7321 | 0.668 mPa·s
298.15 K, 101 kPa, x1 = 0.9233 | 0.716 mPa·s
298.15 K, 101.33 kPa, x2 = 0.1 | 0.9008 mPa·s
298.15 K, 101.33 kPa, x2 = 0.1339 | 0.893 mPa·s
298.15 K, 101.33 kPa, x2 = 0.25 | 0.7374 mPa·s and 0.754 mPa·s
298.15 K, 101.33 kPa, x2 = 0.2921 | 0.734 mPa·s
298.15 K, 101.33 kPa, x2 = 0.4 | 0.655 mPa·s
298.15 K, 101.33 kPa, x2 = 0.4179 | 0.666 mPa·s
298.15 K, 101.33 kPa, x2 = 0.5 | 0.6298 mPa·s and 0.653 mPa·s
298.15 K, 101.33 kPa, x2 = 0.7231 | 0.597 mPa·s
298.15 K, 101.33 kPa, x2 = 0.75 | 0.5983 mPa·s
298.15 K, 101.33 kPa, x2 = 0.7711 | 0.596 mPa·s
298.15 K, 101.33 kPa, x2 = 0.8704 | 0.591 mPa·s
298.15 K, 101.33 kPa, x2 = 0.9645 | 0.594 mPa·s
303.15 K, 101 kPa, x1 = 0.2158 | 0.61 mPa·s
303.15 K, 101 kPa, x1 = 0.3643 | 0.628 mPa·s
303.15 K, 101 kPa, x1 = 0.4322 | 0.624 mPa·s
303.15 K, 101 kPa, x1 = 0.5213 | 0.642 mPa·s
303.15 K, 101 kPa, x1 = 0.7321 | 0.653 mPa·s
303.15 K, 101 kPa, x1 = 0.9233 | 0.71 mPa·s
303.15 K, 101 kPa, x2 = 0.1603 | 0.8519 mPa·s
303.15 K, 101 kPa, x2 = 0.39 | 0.6887 mPa·s
303.15 K, 101 kPa, x2 = 0.7224 | 0.5822 mPa·s
313.15 K, 101 kPa, x2 = 0.1603 | 0.7841 mPa·s
313.15 K, 101 kPa, x2 = 0.39 | 0.6245 mPa·s
313.15 K, 101 kPa, x2 = 0.7224 | 0.5111 mPa·s
323.15 K, 101 kPa, x2 = 0.1603 | 0.7112 mPa·s
323.15 K, 101 kPa, x2 = 0.39 | 0.5776 mPa·s
323.15 K, 101 kPa, x2 = 0.7224 | 0.4939 mPa·s
